Structures are written as SMILES. Activity calls are given as the source filed them.

For experiment [1], the target named is T1, Interleukin-8 (Homo sapiens, UniProt P10145).
T1 sequence (P10145 whole entry): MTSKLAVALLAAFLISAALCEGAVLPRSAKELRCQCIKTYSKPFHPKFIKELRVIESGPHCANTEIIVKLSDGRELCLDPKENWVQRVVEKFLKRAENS
Kind of experiment: Dose Response confirmation of uHTS small molecule hits for cystic fibrosis induced NFkb Inhibitors in a TNFa-induced IL8 counterscreen. Format: functional. The note with it: read-out: IC50_Mean. (In general: A counterscreen serves to expose hits that act by an unwanted route or on another target.)

Another experiment concerns HEK293. Briefly: EBV LMP1 TES2 canonical NF-kB signalling blockers – cell-based, HEK293, luciferase, cherry-pick, dose response (AID 588343). Format: functional. The note with it: Homo sapiens.
The target of experiment [2] is T1, Interleukin-8. Kind of experiment: Dose Response confirmation of uHTS small molecule hits for cystic fibrosis induced NFkb Inhibitors in a PAF-induced IL8 counterscreen. Format: functional. The note with it: read-out: IC50_Mean.
A short description of experiment [3]: HepG2 cell cytotoxicity, cytotoxicity control, set 4 (AID 504910). In kind it is functional. Conditions: Mycobacterium tuberculosis.
The target in experiment [4] is T2, Lysine-specific demethylase 4C (Homo sapiens, UniProt Q9H3R0).
T2 sequence (Q9H3R0 whole entry): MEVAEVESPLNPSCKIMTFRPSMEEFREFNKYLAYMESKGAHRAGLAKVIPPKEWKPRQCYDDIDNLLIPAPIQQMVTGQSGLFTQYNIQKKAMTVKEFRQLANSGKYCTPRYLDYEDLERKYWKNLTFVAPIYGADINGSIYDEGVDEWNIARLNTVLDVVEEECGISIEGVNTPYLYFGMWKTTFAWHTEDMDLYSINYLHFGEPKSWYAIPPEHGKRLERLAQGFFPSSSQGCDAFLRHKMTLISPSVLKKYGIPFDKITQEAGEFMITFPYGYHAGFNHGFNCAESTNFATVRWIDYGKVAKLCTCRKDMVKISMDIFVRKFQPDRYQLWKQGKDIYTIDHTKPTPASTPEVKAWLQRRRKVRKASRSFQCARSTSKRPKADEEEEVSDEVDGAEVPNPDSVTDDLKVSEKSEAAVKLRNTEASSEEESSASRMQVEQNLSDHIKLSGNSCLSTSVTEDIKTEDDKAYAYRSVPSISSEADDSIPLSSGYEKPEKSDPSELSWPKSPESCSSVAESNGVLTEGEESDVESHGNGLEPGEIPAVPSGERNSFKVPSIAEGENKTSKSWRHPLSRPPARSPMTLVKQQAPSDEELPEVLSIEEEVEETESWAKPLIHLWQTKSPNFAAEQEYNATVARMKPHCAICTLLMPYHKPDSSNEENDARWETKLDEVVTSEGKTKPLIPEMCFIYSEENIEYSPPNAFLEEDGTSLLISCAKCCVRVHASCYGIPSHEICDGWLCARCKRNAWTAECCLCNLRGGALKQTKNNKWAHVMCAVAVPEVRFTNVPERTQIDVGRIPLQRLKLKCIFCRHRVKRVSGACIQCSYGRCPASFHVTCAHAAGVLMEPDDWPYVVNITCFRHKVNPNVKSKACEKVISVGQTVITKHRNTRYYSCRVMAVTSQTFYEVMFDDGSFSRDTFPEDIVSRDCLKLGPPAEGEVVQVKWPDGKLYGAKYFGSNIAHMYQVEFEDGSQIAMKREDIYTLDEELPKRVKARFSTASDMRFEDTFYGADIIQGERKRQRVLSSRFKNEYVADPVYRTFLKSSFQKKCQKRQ
Briefly: inhibition of JMJD2C H3K9me3 demethylation – biochemical, DELFIA europium, cherry-picked samples, dose response (AID 488835). Format: functional.

The target in experiment [5] is Glyceraldehyde-3-phosphate dehydrogenase (Homo sapiens, UniProt P04406).
The target in experiment [6] is 72 kDa type IV collagenase (Homo sapiens, UniProt P08253). Briefly: Dose Response validation of uHTS RPN11 inhibitor hits using a MMP-2 Fluorescence assay. In kind it is functional.
The target of experiment [7] is Eukaryotic translation initiation factor 4E (Mus musculus, UniProt P63073). Kind of experiment: blockers of eIF4G binding by eIF4E – biochemical, TR-FRET, dose response (AID 855).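 Also: potency for disrupting eIF4E binding to eIF4GI seen as loss of FRET.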 In kind it is functional. On the technique in general: TR-FRET usually uses a lanthanide donor and a delayed reading to cut background.
The target of experiment [8] is T3, Dual specificity protein phosphatase 6 (Rattus norvegicus, UniProt Q64346).
T3 sequence (Q64346 whole entry): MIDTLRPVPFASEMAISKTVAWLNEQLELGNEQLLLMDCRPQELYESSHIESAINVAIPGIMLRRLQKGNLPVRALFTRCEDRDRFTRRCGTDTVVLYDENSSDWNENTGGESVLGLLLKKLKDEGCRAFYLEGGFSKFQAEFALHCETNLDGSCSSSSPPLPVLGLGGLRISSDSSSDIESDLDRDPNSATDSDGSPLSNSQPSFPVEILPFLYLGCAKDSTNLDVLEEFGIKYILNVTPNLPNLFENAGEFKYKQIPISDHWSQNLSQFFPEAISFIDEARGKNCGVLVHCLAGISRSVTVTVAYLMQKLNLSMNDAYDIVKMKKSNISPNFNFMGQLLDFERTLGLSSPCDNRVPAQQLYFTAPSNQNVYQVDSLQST

The target in experiment [9] is Heat shock 70 kDa protein 1A (Homo sapiens, UniProt P0DMV8). Briefly: inhibition of Hsp70 binding activity – biochemical, fluorescence polarization, SAR follow-up (AID 1072).
Experiment [10] deals with 26S proteasome non-ATPase regulatory subunit 14 (Homo sapiens, UniProt O00487). Briefly: inhibition of proteasome subunit RPN11 – biochemical, fluorescence polarization, uHTS hits, confirmation (AID 602368). In kind it is functional. On the technique in general: Fluorescence polarisation rises when a labelled molecule tumbles more slowly, as on binding a larger partner.

The next experiment has as its system HeLa. Briefly: viability loss in HeLa cells – cell-based, 24 h, cherry-picked samples, cytotoxicity control, dose response (AID 504726).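 Also: potency for cytotoxicity as loss of luminescence signal.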 Format: functional. Conditions: Homo sapiens.
Experiment [11] concerns the target Heat shock cognate 71 kDa protein (Homo sapiens, UniProt P11142). Kind of experiment: In Vitro Hsc70 Dose Response Fluorescence Polarization Assay. [Related pubchem assays: 1072 ].
The next experiment has as its target Prothrombin (Bos taurus, UniProt P00735). Briefly: thrombin protease inhibitors – biochemical, fluorescence polarization, uHTS hits, dose response (AID 602369). Format: functional.
In experiment [12] the target is T3, Dual specificity protein phosphatase 6. Kind of experiment: inhibition of rat DUSP6 enzyme activity – biochemical, in vitro, primary screen (AID 425).
The target in experiment [13] is T4, Tyrosine-protein phosphatase non-receptor type 7 (Homo sapiens, UniProt P35236).
T4 sequence (P35236 whole entry): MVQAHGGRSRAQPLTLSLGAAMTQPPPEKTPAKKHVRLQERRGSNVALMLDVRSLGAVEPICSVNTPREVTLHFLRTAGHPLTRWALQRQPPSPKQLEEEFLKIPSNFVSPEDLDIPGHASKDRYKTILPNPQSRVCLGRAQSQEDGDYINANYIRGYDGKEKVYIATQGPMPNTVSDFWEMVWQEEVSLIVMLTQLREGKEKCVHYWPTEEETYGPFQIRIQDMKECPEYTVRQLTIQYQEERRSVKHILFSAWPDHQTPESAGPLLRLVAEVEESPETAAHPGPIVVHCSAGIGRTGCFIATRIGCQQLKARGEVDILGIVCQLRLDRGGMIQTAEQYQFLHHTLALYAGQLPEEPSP
Format: functional.

For experiment [14], the target named is DNA (cytosine-5)-methyltransferase 1 (Homo sapiens, UniProt P26358). Kind of experiment: inhibition of DNA methylation by DNMT1 – biochemical, fluorescent molecular beacon, confirmation (AID 602386). Format: functional.
The target in experiment [15] is T3, Dual specificity protein phosphatase 6. Format: functional.
A further experiment concerns the target ORF 73 (Human herpesvirus 8, UniProt O40947). Briefly: KSHV LANA DNA-binding disruption – biochemical, fluorescence polarization, cherry-picked samples, dose response (AID 504725).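 Also: fluorescence polarization of a labeled DNA duplex reporting LANA DNA binding; potency is for inhibitors that block LANA binding to the DNA.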 Set-up: species or system Human gammaherpesvirus 8.
The next experiment concerns the target Large T antigen (Simian virus 40, UniProt P03070). Format: functional, Betapolyomavirus macacae.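 Also: Confirmatory-stage PubChem screen for compounds that inhibit SV40 T antigen.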

Chain of Glyceraldehyde-3-phosphate dehydrogenase (P04406 whole entry): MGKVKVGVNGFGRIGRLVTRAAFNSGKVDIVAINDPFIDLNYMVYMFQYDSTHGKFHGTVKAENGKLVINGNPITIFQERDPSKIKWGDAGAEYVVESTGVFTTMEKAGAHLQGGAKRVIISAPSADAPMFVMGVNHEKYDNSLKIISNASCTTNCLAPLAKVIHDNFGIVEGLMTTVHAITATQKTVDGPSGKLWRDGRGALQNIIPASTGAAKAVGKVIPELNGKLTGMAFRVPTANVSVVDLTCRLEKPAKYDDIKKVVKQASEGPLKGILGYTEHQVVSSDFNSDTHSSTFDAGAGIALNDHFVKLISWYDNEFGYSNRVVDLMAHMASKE
Chain of Large T antigen (P03070 whole entry): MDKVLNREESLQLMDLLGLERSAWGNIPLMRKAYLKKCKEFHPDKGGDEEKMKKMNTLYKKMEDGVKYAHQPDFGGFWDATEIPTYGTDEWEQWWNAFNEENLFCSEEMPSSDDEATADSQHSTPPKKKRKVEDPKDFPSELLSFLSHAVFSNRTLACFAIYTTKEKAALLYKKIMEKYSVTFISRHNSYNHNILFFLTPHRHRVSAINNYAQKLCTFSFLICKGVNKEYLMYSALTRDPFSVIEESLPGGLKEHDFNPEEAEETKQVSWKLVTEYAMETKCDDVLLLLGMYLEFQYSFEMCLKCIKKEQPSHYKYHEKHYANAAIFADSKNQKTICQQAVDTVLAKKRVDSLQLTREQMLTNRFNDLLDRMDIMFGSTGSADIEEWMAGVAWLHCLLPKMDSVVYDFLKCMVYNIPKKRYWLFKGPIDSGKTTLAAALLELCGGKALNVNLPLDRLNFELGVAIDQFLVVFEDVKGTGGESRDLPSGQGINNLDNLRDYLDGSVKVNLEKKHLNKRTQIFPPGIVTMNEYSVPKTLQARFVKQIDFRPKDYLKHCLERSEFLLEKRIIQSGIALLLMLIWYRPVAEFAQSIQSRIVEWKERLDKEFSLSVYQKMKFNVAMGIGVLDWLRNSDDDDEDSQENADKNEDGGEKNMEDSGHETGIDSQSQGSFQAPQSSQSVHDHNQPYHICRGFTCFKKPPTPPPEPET
Chain of 26S proteasome non-ATPase regulatory subunit 14 (O00487 whole entry): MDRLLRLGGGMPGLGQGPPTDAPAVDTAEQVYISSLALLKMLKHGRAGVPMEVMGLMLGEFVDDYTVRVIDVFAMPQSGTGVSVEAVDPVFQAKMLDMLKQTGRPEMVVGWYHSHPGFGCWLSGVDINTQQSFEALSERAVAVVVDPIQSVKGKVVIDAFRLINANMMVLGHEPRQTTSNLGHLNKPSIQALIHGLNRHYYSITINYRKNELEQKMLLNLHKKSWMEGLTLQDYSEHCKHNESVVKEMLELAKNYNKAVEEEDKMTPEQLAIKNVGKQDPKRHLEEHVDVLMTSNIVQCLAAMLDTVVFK
Chain of Heat shock 70 kDa protein 1A (P0DMV8 whole entry): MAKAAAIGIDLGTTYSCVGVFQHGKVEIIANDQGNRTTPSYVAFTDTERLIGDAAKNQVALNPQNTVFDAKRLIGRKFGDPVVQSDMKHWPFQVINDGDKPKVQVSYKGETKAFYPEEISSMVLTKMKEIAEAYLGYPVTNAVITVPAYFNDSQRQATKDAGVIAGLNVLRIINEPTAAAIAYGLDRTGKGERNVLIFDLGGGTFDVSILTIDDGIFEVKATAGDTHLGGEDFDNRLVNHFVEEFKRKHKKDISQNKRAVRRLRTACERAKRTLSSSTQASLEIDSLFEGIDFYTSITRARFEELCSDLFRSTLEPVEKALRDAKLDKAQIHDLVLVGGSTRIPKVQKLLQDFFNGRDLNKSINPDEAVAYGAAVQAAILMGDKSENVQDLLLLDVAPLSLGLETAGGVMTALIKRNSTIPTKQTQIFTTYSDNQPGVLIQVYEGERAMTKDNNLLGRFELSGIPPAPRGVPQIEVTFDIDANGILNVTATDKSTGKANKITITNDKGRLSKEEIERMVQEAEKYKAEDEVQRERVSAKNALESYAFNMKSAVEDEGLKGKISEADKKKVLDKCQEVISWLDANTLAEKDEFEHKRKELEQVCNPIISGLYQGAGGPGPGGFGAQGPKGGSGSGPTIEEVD
Chain of 72 kDa type IV collagenase (P08253 whole entry): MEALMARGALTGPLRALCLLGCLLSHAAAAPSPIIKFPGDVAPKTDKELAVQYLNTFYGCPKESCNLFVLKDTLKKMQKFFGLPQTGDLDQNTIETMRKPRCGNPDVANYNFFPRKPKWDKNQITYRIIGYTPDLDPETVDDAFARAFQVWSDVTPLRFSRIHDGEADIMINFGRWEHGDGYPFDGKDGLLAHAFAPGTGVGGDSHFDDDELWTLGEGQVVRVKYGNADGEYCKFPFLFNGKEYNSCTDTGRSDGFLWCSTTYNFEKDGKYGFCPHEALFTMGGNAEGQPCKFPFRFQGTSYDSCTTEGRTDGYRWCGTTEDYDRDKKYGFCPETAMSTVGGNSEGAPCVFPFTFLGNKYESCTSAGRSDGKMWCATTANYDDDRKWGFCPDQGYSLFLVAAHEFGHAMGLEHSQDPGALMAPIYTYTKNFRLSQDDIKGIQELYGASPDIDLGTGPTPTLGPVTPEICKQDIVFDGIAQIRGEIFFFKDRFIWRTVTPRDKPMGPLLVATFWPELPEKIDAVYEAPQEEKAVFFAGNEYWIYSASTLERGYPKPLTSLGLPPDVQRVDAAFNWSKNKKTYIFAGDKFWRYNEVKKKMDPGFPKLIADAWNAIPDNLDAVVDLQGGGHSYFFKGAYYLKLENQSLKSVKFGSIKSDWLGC
Chain of Heat shock cognate 71 kDa protein (P11142 whole entry): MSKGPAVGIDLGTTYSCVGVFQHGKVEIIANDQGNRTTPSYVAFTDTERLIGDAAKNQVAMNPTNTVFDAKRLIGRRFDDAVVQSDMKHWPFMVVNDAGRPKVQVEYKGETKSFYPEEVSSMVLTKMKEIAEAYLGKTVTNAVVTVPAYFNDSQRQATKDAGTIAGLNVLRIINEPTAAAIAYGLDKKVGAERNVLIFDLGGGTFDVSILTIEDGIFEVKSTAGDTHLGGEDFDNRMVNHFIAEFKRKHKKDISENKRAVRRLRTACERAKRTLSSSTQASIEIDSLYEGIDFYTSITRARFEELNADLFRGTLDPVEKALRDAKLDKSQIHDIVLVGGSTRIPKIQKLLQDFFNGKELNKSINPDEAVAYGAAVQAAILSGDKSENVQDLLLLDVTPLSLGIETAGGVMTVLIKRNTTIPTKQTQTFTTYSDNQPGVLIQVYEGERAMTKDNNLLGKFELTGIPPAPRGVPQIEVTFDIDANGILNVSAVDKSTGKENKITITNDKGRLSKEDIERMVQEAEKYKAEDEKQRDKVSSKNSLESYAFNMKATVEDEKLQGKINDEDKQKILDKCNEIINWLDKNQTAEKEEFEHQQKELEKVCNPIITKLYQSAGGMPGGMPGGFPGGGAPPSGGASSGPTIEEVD
Chain of DNA (cytosine-5)-methyltransferase 1 (P26358 whole entry): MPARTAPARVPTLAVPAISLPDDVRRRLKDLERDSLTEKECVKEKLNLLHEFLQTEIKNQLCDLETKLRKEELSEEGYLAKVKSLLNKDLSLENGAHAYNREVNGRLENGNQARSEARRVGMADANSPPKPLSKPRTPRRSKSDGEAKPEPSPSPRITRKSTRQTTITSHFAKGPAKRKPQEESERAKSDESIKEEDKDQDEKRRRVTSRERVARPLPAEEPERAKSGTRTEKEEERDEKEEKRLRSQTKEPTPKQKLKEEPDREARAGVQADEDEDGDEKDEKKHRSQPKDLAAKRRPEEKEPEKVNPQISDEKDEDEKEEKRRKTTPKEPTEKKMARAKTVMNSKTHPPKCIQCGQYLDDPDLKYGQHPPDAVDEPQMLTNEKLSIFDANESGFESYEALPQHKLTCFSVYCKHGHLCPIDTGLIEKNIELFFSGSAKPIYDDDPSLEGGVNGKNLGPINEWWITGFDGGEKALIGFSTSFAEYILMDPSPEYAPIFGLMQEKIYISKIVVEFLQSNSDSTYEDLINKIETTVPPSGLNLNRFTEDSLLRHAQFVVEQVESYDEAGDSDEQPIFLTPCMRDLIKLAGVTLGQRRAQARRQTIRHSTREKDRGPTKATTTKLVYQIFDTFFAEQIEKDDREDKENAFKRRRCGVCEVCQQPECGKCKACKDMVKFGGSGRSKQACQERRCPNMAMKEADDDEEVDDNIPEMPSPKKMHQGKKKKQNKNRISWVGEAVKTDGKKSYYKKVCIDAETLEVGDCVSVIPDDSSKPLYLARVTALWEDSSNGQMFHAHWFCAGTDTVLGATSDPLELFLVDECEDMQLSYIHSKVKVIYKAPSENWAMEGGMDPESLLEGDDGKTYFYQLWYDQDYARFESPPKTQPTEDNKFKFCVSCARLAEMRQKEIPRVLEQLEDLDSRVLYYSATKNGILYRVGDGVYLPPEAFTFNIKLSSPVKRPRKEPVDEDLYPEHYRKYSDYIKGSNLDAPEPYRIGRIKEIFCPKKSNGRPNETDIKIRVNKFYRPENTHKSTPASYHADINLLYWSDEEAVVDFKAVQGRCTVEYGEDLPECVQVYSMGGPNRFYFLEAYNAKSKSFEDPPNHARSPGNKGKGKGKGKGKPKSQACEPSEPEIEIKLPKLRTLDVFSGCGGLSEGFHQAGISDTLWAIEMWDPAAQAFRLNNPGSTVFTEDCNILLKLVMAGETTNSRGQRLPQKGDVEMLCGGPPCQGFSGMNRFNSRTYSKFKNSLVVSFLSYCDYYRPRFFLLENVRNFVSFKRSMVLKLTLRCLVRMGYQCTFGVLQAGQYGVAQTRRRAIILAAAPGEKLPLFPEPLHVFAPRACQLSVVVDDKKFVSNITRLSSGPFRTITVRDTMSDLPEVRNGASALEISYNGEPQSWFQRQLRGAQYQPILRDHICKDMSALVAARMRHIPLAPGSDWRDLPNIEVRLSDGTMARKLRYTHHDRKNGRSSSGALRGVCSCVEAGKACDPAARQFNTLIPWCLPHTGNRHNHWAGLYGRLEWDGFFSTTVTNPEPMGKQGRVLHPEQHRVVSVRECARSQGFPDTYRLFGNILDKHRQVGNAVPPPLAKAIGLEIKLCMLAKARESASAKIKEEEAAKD

What is called AC50 is the concentration giving half of the maximal activity seen. With `Nc1ncnc(N2CCc3ccccc32)c1[N+](=O)[O-]`, the IC50 at Interleukin-8 [1] was 40.1 µM (inactive); on Interleukin-8 [2], > 79 µM (inactive). For the same molecule, the half-maximal activity concentration (AC50) in the experiment with HEK293 was 4.52 µM (active).
One may read the CC50 as the concentration that lowers cell viability or growth by half. Regarding `Cc1nc(SCC(=O)NC2CCCCC2)nc(O)c1C`, the half-maximal cytotoxic concentration (CC50) in [3] was > 50 µM (active).
Consider `O=C1CC(=O)N(Cc2ccco2)C(=O)N1`, for which the values for the AC50 (in experiment [4]; with HeLa; on ORF 73) were 11.2 µM (active), > 350 µM (inactive) and 132 µM (active), respectively. Further, the IC50 was > 100 µM (not active) in experiment [5]; 1.04 µM (active) in [6]; > 64 µM (inactive) in experiment [7]; > 100 µM (inactive) in experiment [8]; > 100 µM (not active) in [9]; 9.99 µM (active) in [10]. Moreover, the IC50 in experiment [11] was > 100 µM (not active); at Prothrombin, 59.1 µM (active); in [12], > 10 µM (not active); in experiment [13], 5.11 µM (active); in [14] it was 1.58 µM (active); in experiment [15] it was > 100 µM (inactive). Further, on Large T antigen, the IC50 was 76.3 µM (active).

These data come from ChEMBL document CHEMBL1201862, “PubChem BioAssay data set” (2004).
